Drawing on PubChem BioAssay (NCI), this text covers GI50 and TGI for seven molecules.

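How tested: cells in 96-well plates exposed to compound for 48 hours at five concentrations. Abbreviation: GI50, concentration required for 50% inhibition of growth. At the TGI there is no net growth.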 Bounds are passed on as bounds.

Among the test systems are 786-0 renal; KM12 colon; SW-620 colon; SNB-75 CNS; M14 melanoma; HS 578T breast; MCF7 breast; ACHN renal; SF-295 CNS; IGROV1 ovarian.
What all share (assay): NCI anticancer screen, dose series, 48 h

`Cn1c(=O)c(Cc2ccc(F)cc2F)cc2cnc(NC3CCOCC3)nc21`: the GI50 with 786-0 renal was > 25 µM; in the assay on KM12 colon, > 25 µM; in the assay on SW-620 colon it was > 25 µM; in the assay with SNB-75 CNS it was > 17.5 µM; with M14 melanoma, > 25 µM; with HS 578T breast it was > 23.6 µM. The GI50 in the assay on MCF7 breast, with ACHN renal, with SF-295 CNS and in the assay on IGROV1 ovarian was > 25 µM in each case. For the same molecule, the TGI in the assay on 786-0 renal, in the assay with KM12 colon, in the assay on SW-620 colon, with SNB-75 CNS, in the assay with M14 melanoma and in the assay with HS 578T breast was > 25 µM in each case. Further, the TGI in the assay on MCF7 breast, in the assay on ACHN renal, in the assay on SF-295 CNS and in the assay with IGROV1 ovarian was > 25 µM in each case.

Take `COc1ccc(C(=O)Nc2cccc(C3CC(=O)c4c(cc(OC)c(OC)c4OC)O3)c2)cc1` (stereo not given): the GI50 is 0.795 µM in the assay with 786-0 renal; 1.08 µM with KM12 colon; 0.691 µM in the assay with SW-620 colon; 1.35 µM in the assay on SNB-75 CNS; 0.534 µM with M14 melanoma; 2 µM with HS 578T breast. The GI50 is 0.466 µM in the assay with MCF7 breast, 2.57 µM in the assay with ACHN renal, 1.72 µM with SF-295 CNS and 2.41 µM with IGROV1 ovarian. In addition, the TGI in the assay on 786-0 renal was > 100 µM; with KM12 colon, 14.7 µM; in the assay with SW-620 colon, > 100 µM; with SNB-75 CNS it was 8.35 µM; in the assay with M14 melanoma, 41.7 µM; in the assay on HS 578T breast, 42.4 µM. Moreover, the TGI with MCF7 breast is 56.4 µM; in the assay with ACHN renal it was > 100 µM; in the assay on SF-295 CNS it was 63.8 µM; in the assay with IGROV1 ovarian, > 100 µM.

Take `C=C1C(=O)O[C@H]2[C@H]1CC/C(Cn1cc(CCC)nn1)=C\CC[C@@]1(C)O[C@@H]21`: the GI50 with 786-0 renal was 11.3 µM; in the assay with KM12 colon it was 17.6 µM; in the assay with SW-620 colon, 4.23 µM; with SNB-75 CNS, 18.5 µM; in the assay with M14 melanoma it was 3.99 µM; in the assay on HS 578T breast it was 23.4 µM. For the same molecule, the GI50 in the assay with MCF7 breast was 3.35 µM; in the assay with ACHN renal, 3.81 µM; with SF-295 CNS it was 18.5 µM; with IGROV1 ovarian it was 4.63 µM. The TGI in the assay on 786-0 renal amounted to 25.5 µM; with KM12 colon it was 34.1 µM; with SW-620 colon, 14.4 µM; in the assay on SNB-75 CNS, 69.4 µM; in the assay on M14 melanoma, 17.9 µM; in the assay on HS 578T breast, 69.6 µM. Besides, the TGI in the assay with MCF7 breast was 15.4 µM; in the assay with ACHN renal it was 15.6 µM; with SF-295 CNS it was 39.2 µM; in the assay with IGROV1 ovarian it was 20.2 µM.

With `CSC(=S)N/N=C(\C)c1ccccn1`, the GI50 in the assay with 786-0 renal was 0.315 µM; in the assay on KM12 colon, 0.346 µM; with SW-620 colon, 0.169 µM; in the assay on SNB-75 CNS, 1.47 µM; with M14 melanoma, 0.0997 µM; in the assay with HS 578T breast, 2.82 µM. Moreover, the GI50 was < 0.0207 µM in the assay on MCF7 breast, 0.232 µM in the assay with ACHN renal, 0.255 µM in the assay on SF-295 CNS and 0.171 µM in the assay on IGROV1 ovarian. In addition, the TGI in the assay with 786-0 renal is 12.5 µM; in the assay on KM12 colon, 14.3 µM; in the assay with SW-620 colon, 17.3 µM; with SNB-75 CNS it was 32.3 µM; with M14 melanoma it was 2.33 µM; with HS 578T breast, 36.3 µM. Besides, the TGI was found to be 11.2 µM with MCF7 breast, 11.8 µM with ACHN renal, 8.38 µM with SF-295 CNS and 17.4 µM in the assay with IGROV1 ovarian.

For `O=[N+]([O-])c1ccc2[nH]cc(-c3c4ccccc4cc4[nH]c5ccc([N+](=O)[O-])cc5c34)c2c1`, the GI50 in the assay with 786-0 renal was 1.94 µM; in the assay with KM12 colon, 1.78 µM; with SW-620 colon, 2.73 µM; with SNB-75 CNS, 1.84 µM; in the assay on M14 melanoma it was 1.67 µM; with HS 578T breast, 2.35 µM. Also, the GI50 was 1.65 µM in the assay on MCF7 breast, 2.42 µM in the assay with ACHN renal, 1.63 µM in the assay on SF-295 CNS and 2.15 µM in the assay on IGROV1 ovarian. For the same molecule, the TGI amounted to 4.09 µM in the assay with 786-0 renal; 3.37 µM with KM12 colon; 8.84 µM in the assay with SW-620 colon; 5.93 µM in the assay on SNB-75 CNS; 3.22 µM in the assay with M14 melanoma; 8.19 µM in the assay with HS 578T breast. The TGI in the assay on MCF7 breast came out at 3.73 µM; in the assay on ACHN renal, 6.97 µM; in the assay with SF-295 CNS it was 3.73 µM; with IGROV1 ovarian, 4.68 µM.

For the molecule `CC(O)CN(CCN(CC(C)O)CC(C)O)CC(C)O.O=[N+]([O-])O.[Cu+2]` (stereo not given), the GI50 in the assay on 786-0 renal, in the assay with KM12 colon, in the assay on SW-620 colon, in the assay with SNB-75 CNS, in the assay with M14 melanoma and in the assay on HS 578T breast was > 100 µM throughout. Further, the GI50 with MCF7 breast is 93.1 µM; with ACHN renal, > 100 µM; in the assay on SF-295 CNS, 9.07 µM; in the assay on IGROV1 ovarian, > 100 µM. Also, the TGI with 786-0 renal, in the assay on KM12 colon, in the assay with SW-620 colon, in the assay on SNB-75 CNS, in the assay with M14 melanoma and with HS 578T breast was > 100 µM throughout. Also, the TGI with MCF7 breast, with ACHN renal, in the assay on SF-295 CNS and in the assay with IGROV1 ovarian was > 100 µM each time.

Regarding `O=c1c2ccccc2nc(-c2ccc(Cl)cc2)n1O`, the TGI with 786-0 renal is 94.4 µM; in the assay on KM12 colon, > 100 µM; in the assay on SW-620 colon, > 100 µM; in the assay with SNB-75 CNS, > 100 µM; with M14 melanoma, > 100 µM; with HS 578T breast, > 100 µM. The TGI in the assay on MCF7 breast was 63.4 µM; in the assay on ACHN renal it was 65 µM; in the assay on SF-295 CNS, 94.1 µM; in the assay with IGROV1 ovarian it was 9.61 µM.
